One compound from patent US20240325544A1, “CATIONIC LIPID FOR COVALENT MODIFICATION OF PEPTIDES” (PharmalN Corporation, priority 2023, published 2024) can be followed below.

SMILES strings stand for the structures. Bridge positions count the residues as written; N and C are the ends. Square brackets hold non-standard residues; d marks the D form. Peptide text beside a SMILES is read from it. * marks the point of attachment. Palmitoyl = CCCCCCCCCCCCCCCC(=O)*; Dap = NC[C@H](N)C(=O)O; AEEA = NCCOCCOCC(=O)O

This assay concerns E0771 breast cancer cells. Kind of assay: Orthotopic mouse model of bone metastasis using breast cancer E0771 cells (FIG. 10). It counts as in vivo, mice. On the procedure: FIGS. 10A-10B. […] Error bars indicate standard error of the mean. […] Also illustrated in this diagram are the corresponding schedules for each treatment administered throughout this study. From tumor implantation, SEQ ID NO: 31 treated groups (2, 3, 6, and 7) were dosed SC (0.3 mg/kg/0.1 μmol/kg in buffer 15 mM succinate, 4% (w/v) D-mannitol, 10 mM hydoxypropyl-beta-cyclodextrin pH 4.4) on Days 5-9, 12-16, 19-23, and 26-29; aPD1 treated groups (3, 5, and 7) were dosed IP (5 mg/kg) on Days 5, 7, 12, and 14; and irradiated groups (4, 5, 6, and 7) received buffer and 5 Gy of X-ray radiation in three sets at the bone on Days 5, 8, and 12. Survival was observed until Day 33, following scheduled sacrifice of remaining mice. At this point, tumor sizes were measured using calipers. […] All groups were significant compared to the control group, so statistical analysis was based on Log-rank (Mantel-Cox) test against group 5 (radiation+aPD1) using GraphPad Prism.
Animal care and treatment: Female C57BL/6J mice (6 weeks-old) were purchased from Oriental Bioservice (Kobe, Japan) and maintained under a 12-hour light/12-hour dark cycle with free access to water and standard mouse diet (CRF diet; Oriental Yeast Co., Ltd, Tokyo Japan). Implantation and drug administration: Mice were orthotopically implanted with E0771 breast cancer cells (Cosmo Bio Tokyo, Japan; 250,000 cells/mouse in RPMI1640 medium (Fujifilm, Tokyo Japan)) in their left mammary gland and E0771 mouse breast cancer cells (500,000 cells/mouse in 50% Matrigel (Corning, NY, USA, #354234)) in their femur. Mice were then randomized into several treatment groups: 1) control (n=5), 2) SEQ ID NO: 31 (n=5), 3) SEQ ID NO: 31 and aPD1 (n=5), 4) radiation (n=6), 5) radiation and aPD1 (n=5), 6) SEQ ID NO: 31 and radiation (n=6), 7) SEQ ID NO: 31, radiation, and aPD1 (n=6). […] Survival was monitored up to Day 33 (FIG. 10B) post cell inoculation, and following scheduled sacrifice of the remaining mice, tumors were harvested, and sizes were measured using calipers. […]

Take `CCCCCCCCCCCCCCCC(=O)NCCOCCOCC(=O)NCCOCCOCC(=O)NCCOCCOCC(=O)N[C@@H](CN)C(=O)N[C@@H](CN)C(=O)NCC(=O)N[C@@H](CC(C)C)C(=O)N[C@@H](CO)C(=O)N[C@@H](CCCCN)C(=O)NCC(=O)N[C@H]1CSSC[C@@H](C(=O)O)NC(=O)CNC(=O)[C@H](CC(C)C)NC(=O)CNC(=O)[C@H](CO)NC(=O)[C@H](CCC(N)=O)NC(=O)[C@H](CO)NC(=O)CNC(=O)[C@H]([C@@H](C)CC)NC(=O)[C@H](CCCNC(=N)N)NC(=O)[C@H](CC(=O)O)NC(=O)[C@H](CC(C)C)NC(=O)[C@H](CCCCN)NC(=O)[C@H](CC(C)C)NC(=O)CNC(=O)[C@H](Cc2ccccc2)NC1=O` [SEQ ID NO: 31] ({Palmitoyl-AEEA-AEEA-AEEA}-[Dap][Dap]GLSKGCFGLKLDRIGSQSGLGC-OH; disulfide 8-24; C-terminus assumed): for the setting “addition of SEQ ID NO: 31 in all its respective groups”, the “Incidence of bone metastasis” value was “reduced the incidence of bone metastasis”. For the same compound, the “Mice tumor free in the bone” value reads like this: (group 6: SEQ ID NO: 31 + radiation) 5 out of 6; (group 7: SEQ ID NO: 31 + radiation + aPD1) 6 out of 6. The “Probability of survival vs group 5 (radiation+aPD1)” value (group 7: SEQ ID NO: 31 0.3 mg/kg SC + radiation + aPD1, to Day 33) was “significant improvement in survival”.
